Experimental data reported in patent US20030113312A1, “Skin barrier function and cohesion through enhanced stratum corneum acidification” (The Regents of the University of California, priority 2001, published 2003).

Key:
[1] = molecular target: T1, NHE1 antiporter (Homo sapiens, UniProt P19634); experiment: Intracellular pH (BCECF) and recovery from acid load in cultured human keratinocytes; format: cell-based
T1 construct: endogenous in cells; host or cells: second passage cultured human keratinocytes from human foreskin (CHK)
Experimental: Assessment of Intracellular pH: Keratinocytes were plated on glass coverslips and grown in Cascade 154 medium containing 0.07 mM Ca^2+. The coverslips were incubated in 145 μM BCECF-AM ester at room temperature for 5 minutes, then rinsed for 30 minutes in buffer containing either 28 mM HEPES, 136 mM NaCl, 5 mM KCl, 0.07 mM CaCl2 and 10 mM glucose, pH 7.4 or Ringer solution (136 mM NaCl, 5 mM KCl, 0.03 mM Ca2+, 28 mM TES, 14 mM Na HCO3, NaOH to adjust the pH to 7.4, and 10 mM glucose (pH 7.4, 330 mOsm)). BCECF-AM-ester is membrane permeable; once inside cells it is de-esterified by endogenous […], trapping flourescently-active, acidic BCECF inside the cells. The BCECF-loaded cells were placed in a superfusion chamber mounted on a inverted microscope (Nikon). The keratinocytes were superfused with one of the two solutions, and baseline intracellular pH was monitored constantly using a ratiometric method (Paradiio et al (1987) Am J. Physiol. 253:C30-6). Briefly, BCECF loaded cells were alternately illuminated every 10 seconds with brief flashes (200 milliseconds) of 440 nm and 490 nm light. The resultant fluorescence (at 530 nm) from each stimulating wavelength was measured with a CCD camera (Hamamatsu) digitally ratioed, and stored using a software program (Fluor, Universal Imaging Co., West Chester, Pa.). Whereas fluorescence emission at 440 nm excitation remains constant, indicative of dye concentration, emission from 490 nm varies proportionally with changes intracellular pH. By ratioing the two signals, intracellular pH is measured as a brightness signal corrected for the intracellular dye concentration.
Calibration was performed at the end of each experiment by permeablizing the cells to protons with nigericin, thereby equilibrating intra- and extracellular pH. Superfusing the cells with solutions containing 85 mM NaCl, 50 mM KCl, 0.07 mM CaCl2, […] nigericin (a K^+/H^+ exchanger), and either 28 mM HEPES, or 28 mM TES bubbled with 5% CO2, pH 6.8 or 7.8, allowed to calibrate intracellular signals. […]

[2] = molecular target: T2, NHE1 antiporter (Mus musculus, UniProt Q61165); experiment: Stratum corneum surface pH after tape stripping with buffers with or without NHE1 inhibitor; format: in vivo
T2 construct: from tissue; host or cells: skin (epidermis / stratum corneum) of living hairless mice
Experimental: (§1) Permeability Barrier Studies: Normal hairless mice were treated topically twice a daily for three days with BPB (4 mg/mL) or MJ33 (4 mg/mL) both in propylene glycol:ethanol (7:3 v/v) vehicle, or the vehicle alone on an area of 5-6 cm on the backs and flanks as described previously (Mao-Qiang, M., et al., J. Lipid Res. 36:1926-35 (1995)). The doses employed were shown previously to be non-toxic to Murine skin (Mao-Qiang, M., et al. (1995); Mao-Qiang, M., et al., J. Invest. Dermatol. 106:57-63 (1996)), and to inhibit secretory phospholipase A2 (sPLA2) activity selectively in different cell types (Gelb, M. H., et al., Faseb J. 8:916-24 (1994); Jain, M. K., et al. (1991)). The acidification experiments were performed with 10 mM HEPES-buffer, adjusted to either pH 5.5 or pH 7.4 as follows: One flank of anesthetized mice was immersed on a mesh netting, as described previously (Lee, S. H., et al., J. Clin. Invest. 89:530-8 (1992)). The mice were anesthetized with chloral hydrate (Morton Grove Pharmaceuticals, Morton Grove, Ill., USA). After 3 hours immersion at 37° C., the mice were removed, and the remaining buffer was gently blotted off. After 15 minutes, barrier function was determined by measurement of transepidermal water loss (TEWL) with an electrolytic water analyzer (MEECO®, Warrington, Pa.). Surface pH was measured with a flat, glass surface electrode from Mettler-Toledo (Giessen, Germany), attached to a pH meter (Skin pH Meter PH 900, Courage & Khazaka, Cologne, Germany). Individually tested sites were covered with Hilltop Chambers (HtC, nominal volume […]), which were reapplied following each indvidual measurement.
(§2) The stratum corneum was removed by several strippings with adhesive tape (Tesa, Beiersdorf, Germany) inducing an increase in TEWL rates above baseline (from 0.2 to approximately 7-9 g/m^2/h). Two sites were prepared on each animal, and TEWL and surface pH were measured at 0, 2, 5 and 24 hrs following the stripping and the applications of inhibitors. Biopsies were taken for electron microscopy from treated and control sites, at 5 and 24 hours. For studies in the NHE1 knockout mice, homozygous (−/−) mice were compared to their wildtype (+/+) littermates. Flanks of these mice were shaved, and barrier homostasis was studied 48 hours later. For tape-stripping of these animals, D-Squame disks (Cu-derm, Dallas, Tex.) were used, as Tesa tape was too disruptive for application to shaved, hairy mouse skin.
To investigate the role of NHE 1 in maintaining the pH balance of the stratum corneum, the integrity of murine skin exposed to different buffers and NHE1 inhibitors, was disrupted by tape-stripping. The pH of the exposed skin was measured before and after tape-stripping. Before tape-stripping, the surface pH in all animals was acidic (6.03+/−0.20, n=78). […] At five hours post-tape-strip, these samples were still not fully recovered, remaining more than 0.05 pH units higher than the initial post-tape-strip values.

[3] = molecular target: T2, NHE1 antiporter; experiment: Barrier recovery (TEWL) after tape stripping; format: in vivo; conditions: for kinetics of barrier recovery after tape-stripping: NHE1 inhibitors, topical, hairless mice
Experimental: as §1, §2
Hairless mice were tape stripped to TEWL of 7-9 g/m^2/h. […] Control areas were covered with Hilltop Chambers containing 10 mM HEPES buffer adjusted to pH 7.4 or pH 5.5 as appropriate. TEWL was measured at 0, 2, 5, and 24 hours post tape-strip. The results are reported as percent barrier recovery from the initial induced defect.

[4] = tested on: hairless mice skin (stratum corneum); experiment: Electron microscopy of lamellar body secretion and extracellular lipid processing; format: in vivo, mouse; conditions: EM of biopsies
Experimental: as §2
Ultrastructural methods: Freshly obtained biopsies from mouse skin were fixed directly in modified Karnovsky's fixative, postfixed with reduced osmium tetroxide (OS04) and then imbedded in an Epon-epoxy mixture. For visualization of lipid-enriched, lamellar bilayer structures, some samples were post fixed in ruthenium tetroxide (RuO4). Sections were cut on a Reichert Ultracut E microtome, counterstained with uranyl acetate and lead citrate, and viewed in a Zeiss 10 CR electron microscope, operated at 60 kV.
Biopsies were taken during time course experiments.

[5] = tested on: hairless mice skin (stratum corneum); experiment: Skin surface pH after topical treatment or buffer exposure; format: in vivo, mouse; conditions: free fatty acid co-applied with BPB for three days
Experimental: Animals: Male hairless mice (Skh1/Hr, Charles River Laboratories, Wilmington, Mass.), 8-12 weeks old, were fed Purina mouse diet and water ad libitum. […] Functional experiments were performed on animals aged 6-10 weeks.
The mice were anesthetized with chloral hydrate (Morton Grove Pharmaceuticals, Morton Grove, Ill., USA). After 3 hours immersion at 37° C., the mice were removed, and the remaining buffer was gently blotted off. After 15 minutes, barrier function was determined by measurement of transepidermal water loss (TEWL) with an electrolytic water analyzer (MEECO®, Warrington, Pa.). Surface pH was measured with a flat, glass surface electrode from Mettler-Toledo (Giessen, Germany), attached to a pH meter (Skin pH Meter PH 900, Courage & Khazaka, Cologne, Germany). Individually tested sites were covered with Hilltop Chambers (HtC, nominal volume 200 mL), which were reapplied following each indvidual measurement.

[6] = tested on: hairless mice skin (stratum corneum); experiment: Stratum corneum integrity: TEWL after sequential tape stripping; format: in vivo, mouse; conditions: for sPLA2 inhibitor induced abnormalities in stratum corneum integrity and cohesion: fatty acid co-applied with BPB or MJ33; for TEWL rate by the fifth strip: fatty acid co-applied with BPB for three days
Experimental: The mice were anesthetized with chloral hydrate (Morton Grove Pharmaceuticals, Morton Grove, Ill., USA). […] After 15 minutes, barrier function was determined by measurement of transepidermal water loss (TEWL) with an electrolytic water analyzer (MEECO®, Warrington, Pa.). […] Individually tested sites were covered with Hilltop Chambers (HtC, nominal volume 200 mL), which were reapplied following each indvidual measurement.

[7] = tested on: hairless mice skin (stratum corneum); experiment: Stratum corneum cohesion: protein removed per D-Squame stripping; format: in vivo, mouse; conditions: for cumulative protein loss at the fifth strip: fatty acid co-applied with BPB for three days
Experimental: Before stripping the stratum corneum, the skin surface was cleaned with a single ethanol wipe. D-Squame tapes then were placed sequentially to the test areas for about 3 sec each, removed with forceps, and stored in glass scintillation vials at 5° C.
The protein content per stripping was determined with the Bio-Rad protein assay kit. […] Each tape was incubated with 1 M NaOH for 1 hour at 37° C. in an incubator shaker at 80 rpm, and neutralized thereafter with 1 mL of 1 M HCl in the scintillation vials. Subsequently, 0.2 mL of this solution was incubated in 0.6 ml distilled water plus 0.2 mL of the Bio-Rad protein dye for 5 minutes in boroscillate tubes. […] An empty D-Squame tape, as well as distilled water incubated with Bio-Rad dye, served as negative controls. The amount of calculated protein was then normalized to skin surface area (μg/cm^2).

[8] = HOE694 in pH 7.4 buffer, two hours post tape strip
[9] = inhibitor in pH 7.4 buffer (amiloride 5 μM, HOE694 7.5 μM), two hours post tape-strip
[10] = inhibitor in pH 7.4 buffer, five hours post tape-strip
[11] = fatty acid co-applied with MJ33 for three days

T1 sequence (P19634 whole entry): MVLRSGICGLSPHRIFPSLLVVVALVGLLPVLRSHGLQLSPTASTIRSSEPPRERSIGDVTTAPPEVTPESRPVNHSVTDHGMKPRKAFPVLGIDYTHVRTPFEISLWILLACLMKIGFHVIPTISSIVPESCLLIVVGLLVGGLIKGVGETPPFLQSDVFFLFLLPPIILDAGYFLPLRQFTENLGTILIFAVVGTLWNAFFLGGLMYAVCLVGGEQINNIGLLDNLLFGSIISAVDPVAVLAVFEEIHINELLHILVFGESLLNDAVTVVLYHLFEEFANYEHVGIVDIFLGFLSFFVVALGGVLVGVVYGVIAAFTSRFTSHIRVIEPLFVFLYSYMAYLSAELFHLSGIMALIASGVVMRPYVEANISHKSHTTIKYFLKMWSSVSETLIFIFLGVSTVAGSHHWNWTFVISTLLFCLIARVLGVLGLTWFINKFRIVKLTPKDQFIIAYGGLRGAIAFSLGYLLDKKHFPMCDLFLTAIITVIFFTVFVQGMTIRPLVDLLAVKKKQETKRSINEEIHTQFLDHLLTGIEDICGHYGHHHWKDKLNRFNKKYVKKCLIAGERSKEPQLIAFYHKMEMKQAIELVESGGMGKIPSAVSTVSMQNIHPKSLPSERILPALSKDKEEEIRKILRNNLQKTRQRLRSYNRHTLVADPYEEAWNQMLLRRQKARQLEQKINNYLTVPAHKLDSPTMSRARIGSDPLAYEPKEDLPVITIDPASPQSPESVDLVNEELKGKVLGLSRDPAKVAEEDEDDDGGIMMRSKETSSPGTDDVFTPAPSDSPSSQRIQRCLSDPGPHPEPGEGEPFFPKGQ
T2 sequence (Q61165 whole entry): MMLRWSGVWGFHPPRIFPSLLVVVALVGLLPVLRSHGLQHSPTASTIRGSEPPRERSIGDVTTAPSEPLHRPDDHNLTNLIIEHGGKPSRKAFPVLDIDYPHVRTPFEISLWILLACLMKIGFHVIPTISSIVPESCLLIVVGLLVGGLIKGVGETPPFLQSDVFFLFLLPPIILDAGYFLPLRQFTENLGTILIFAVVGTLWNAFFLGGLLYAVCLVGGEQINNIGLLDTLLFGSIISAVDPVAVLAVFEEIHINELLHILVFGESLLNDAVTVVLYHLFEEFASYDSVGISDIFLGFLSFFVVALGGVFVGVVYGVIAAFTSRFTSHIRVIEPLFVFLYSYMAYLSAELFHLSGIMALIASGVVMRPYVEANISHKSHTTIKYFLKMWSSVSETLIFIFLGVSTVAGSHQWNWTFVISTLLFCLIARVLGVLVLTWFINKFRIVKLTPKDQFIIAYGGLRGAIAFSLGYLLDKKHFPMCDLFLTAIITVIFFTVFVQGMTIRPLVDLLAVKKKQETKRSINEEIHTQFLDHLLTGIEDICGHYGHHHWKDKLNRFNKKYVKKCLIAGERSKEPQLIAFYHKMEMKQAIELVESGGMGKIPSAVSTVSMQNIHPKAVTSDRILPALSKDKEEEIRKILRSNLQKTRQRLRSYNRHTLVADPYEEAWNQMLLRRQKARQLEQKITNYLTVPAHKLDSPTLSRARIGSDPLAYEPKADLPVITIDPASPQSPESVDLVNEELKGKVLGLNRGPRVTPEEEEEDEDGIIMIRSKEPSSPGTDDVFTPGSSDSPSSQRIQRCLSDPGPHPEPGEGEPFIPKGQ

Q: Which “intracellular pH” value ([1]; 1.5 μM for 16 hours, dropped from pH 7.05) does the source give for `CS(=O)(=O)c1cc(C(=O)NC(=N)N)ccc1N1CCCCC1` [HOE694, 3-methylsulfonyl-4-piperidino-benzoylguanidinemethanesulfonate] here?
A: The value was 6.90 pH.

Q: And the “initial post-tape-strip pH value vs pH 5.5 buffer alone” value ([2]; HOE694 in pH 5.5 buffer)?
A: The value was “increased significantly”.

Q: And the “pH increase over the initial post-tape-strip value” ([2]; HOE694 in pH 5.5 buffer, five hours post-tape-strip)?
A: Its value is “more than 0.05 pH units”.

Q: And the “pH increase over the initial post-tape-strip value” ([2]; HOE694 in pH 5.5 buffer, two hours post-tape-strip)?
A: The value was “more than 0.1 pH units”.

Q: And the “initial post-tape-strip pH value vs pH 7.4 buffer only” value ([2]; HOE694 in pH 7.4 buffer)?
A: Its value is “similar”.

Q: What about the “elevated pH at five hours” value ([2]; HOE694 in pH 7.4 buffer, five hours post tape strip) of the same compound?
A: Its value is “persisted and even increased”.

Q: And the “pH increase over the initial post-tape-strip value” [2, 8]?
A: The value was > 0.1 pH unit.

Q: What about the “pH increase over the two hour time point of pH 7.4 buffer alone” value [2, 8] of the same compound?
A: The value was ~0.05 pH units.

Q: And the “percent barrier recovery (TEWL rate less than the initial induced rate)” value (from here on “percent barrier recovery”) ([3]; HOE694 in pH 5.5 buffer, 2 hours post tape-strip)?
A: Its value is 25%.

Q: And the “percent barrier recovery” value ([3]; HOE694 in pH 5.5 buffer, 5 hours post tape-strip)?
A: Its value is 38%.

Q: What about the “percent barrier recovery” value ([3]; HOE694 in pH 5.5 buffer, 24 hours post tape-strip) of the same compound?
A: The value was 75%.

Q: What about the “kinetics of barrier recovery after tape-stripping” value [3] of the same compound?
A: The value was “delayed barrier recovery”.

Q: What about the “percent barrier recovery” value [3, 9] of the same compound?
A: The value was “about 12%”.

Q: And the “percent barrier recovery” value ([3]; inhibitor in pH 7.4 buffer, 24 hours post tape-strip)?
A: Its value is “about 45%”.

Q: What about the “percent barrier recovery” value [3, 10] of the same compound?
A: Its value is 23%.

Q: And the “extracellular processing of secreted lipids” value ([4]; HOE694 in pH 5.5 buffer)?
A: Its value is “appeared normal”.

Q: And the “extracellular processing of secreted lipids” value ([4]; HOE694 in pH 7.4 buffer)?
A: The value was “defective”.

Q: What about the “lamellar body formation and secretion” value ([4]; HOE694 in pH 7.4 buffer) of the same compound?
A: Its value is “undisturbed”.

Q: How did the “intracellular pH response” value ([1]; NH4Cl added to cultures of CHK, initial alkalinization, then after dissociation of the ammonium ion) turn out when `Cl.N` [NH4Cl, ammonium chloride] was run?
A: The value was “take on an acid load”.

Q: `N=C(N)NC(=O)c1nc(Cl)c(N)nc1N` [amiloride, N-Amido-3,5-diamino-6-chloropyrazinecarboxamide] was tested. Which “effect after wash out period” value ([1]; cultured human keratinocytes, wash out of amiloride, recovery from the acid load) did it give?
A: The value was “non-permanent, non-toxic effect”.

Q: And the “kinetics of barrier recovery after tape-stripping” value [3]?
A: The value was “delayed barrier recovery”.

Q: What about the “percent barrier recovery” value [3, 9] of the same compound?
A: The value was “about 12%”.

Q: And the “percent barrier recovery” value [3, 10]?
A: Its value is “about 25%”.

Q: Which “pH of the stratum corneum” value [5] does the source give for `CCCCC/C=C\C/C=C\CCCCCCCC(=O)O` [linoleic acid] here?
A: Its value is 5.77+/−0.10.

Q: What about the “sPLA2 inhibitor induced abnormalities in stratum corneum integrity and cohesion” value (shortened to “sPLA2 inhibitor induced abnormalities”) [6] of the same compound?
A: The value was “to a lesser extent”.

Q: With `CCCCCCCCCCCCCCCC(=O)O` [palmitic acid] as the compound, how does the “pH of the stratum corneum” value [5] read?
A: Its value is 5.40+/−0.14.

Q: What about the “TEWL rate by the fifth strip” value [6] of the same compound?
A: The value was 55-60 g/m^2/h.

Q: And the “sPLA2 inhibitor induced abnormalities” value [6]?
A: Its value is “prevented emergence”.

Q: And the “TEWL rate after three sequential tape-strippings” value [6, 11]?
A: The value was 30-35 g/m^2/h.

Q: What about the “cumulative protein loss at the fifth strip” value [7] of the same compound?
A: The value was “about 40 μg/cm^2”.

Q: What about the “loss of protein after three strippings” value [7, 11] of the same compound?
A: Its value is “about 30 μg/cm^2”.

Q: Which “pH of the stratum corneum” value [5] does the source give for `CCCCCCCCCCCCCCCCCC(=O)O` [stearic acid] here?
A: The value was 5.73+/−0.09.

Q: What about the “TEWL rate by the fifth strip” value [6] of the same compound?
A: Its value is “about 25 g/m^2/h”.

Q: And the “sPLA2 inhibitor induced abnormalities” value [6]?
A: Its value is “prevented emergence”.

Q: What about the “cumulative protein loss at the fifth strip” value [7] of the same compound?
A: The value was “about 25 μg/cm^2”.
